# Assay results: patent US5753679A, “Benzyl-piperidine derivatives” (priority 1995, dated 1998)
# Read-outs that look alike come from different tables or passages of the source.
# Biological target: T1, dopamine D4 receptor (Homo sapiens, UniProt P21917)
# T1 construct: expressed in transfected cells; host or cells: CHO (Chinese Hamster Ovary) cells, D4-CHO, crude membranes
# T1 sequence (P21917 1-419): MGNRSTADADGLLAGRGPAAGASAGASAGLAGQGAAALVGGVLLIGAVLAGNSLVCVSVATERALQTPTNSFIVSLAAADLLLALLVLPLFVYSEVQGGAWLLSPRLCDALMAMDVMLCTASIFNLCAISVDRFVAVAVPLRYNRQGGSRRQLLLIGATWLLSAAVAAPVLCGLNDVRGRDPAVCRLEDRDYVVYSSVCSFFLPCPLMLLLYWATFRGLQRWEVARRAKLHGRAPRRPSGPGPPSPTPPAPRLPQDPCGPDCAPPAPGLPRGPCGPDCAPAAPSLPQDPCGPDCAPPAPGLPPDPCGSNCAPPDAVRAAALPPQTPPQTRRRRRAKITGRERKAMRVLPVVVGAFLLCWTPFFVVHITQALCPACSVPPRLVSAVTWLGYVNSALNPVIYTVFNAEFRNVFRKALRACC
# Experiment: Binding to the D4 receptor, [3H]-spiperone displacement, D4-CHO membranes
# Description: The compounds were characterized by a comparison in binding behaviour to the D4 receptor and to the D2 receptor. CHO cells (Chinese Hamster Ovary) were used in the test. Crude membranes were isolated from D4 --CHO and D2 --CHO cells by ultracentrifugation and were stored at -80° C. After thawing and homogenization in a buffer solution (50 mM Tris, 1 mM EDTA, 5 mM KCI, 1.5 mM CaCI2, 4 mM MgCI2, pH 7.4) they were incubated at room temperature for 90 minutes with 200 pM [^3 H]-spiperone and increasing concentrations (1×10^-11 M to 1×10^-4 M) of the test compound. A non-specific binding by the incubation was established in the presence of 1×10^-5 M (+)-butaclamol.
# The unbound radioligand was removed by filtration through a GFIC glass filter and the bound radioactivity was determined by flash emission in a Packard Top Count.
# It was determined using ^3 H-spiperone. The calculation of the value was effected with a ligand.
# [1] = [3H]-spiperone 200 pM, D4-CHO crude membranes, room temperature, 90 minutes, pH 7.4, read-out: Ki at D4
Structure (SMILES),Ki [nM],Ki [1] [nM]
"Nc1ccccc1C(=O)OC1CCN(Cc2ccccc2)CC1 [A/5a, 1-Benzyl-piperidin-4-yl 2-amino-benzoate]",4,
"Nc1ccc(C(=O)OC2CCN(Cc3ccccc3)CC2)nc1 [B/8b, 1-benzyl-piperidin-4-yl 5-amino-picolinate]",,16.4
"O=C(OC1CCN(Cc2ccccc2)CC1)c1ccc(Br)cc1 [C/19b, 1-Benzyl-piperidin-4-yl 4-bromo-benzoate]",,10
"O=C(OC1CCN(Cc2ccccc2)CC1)c1ccc(I)cc1 [D/22a, 1-Benzyl-piperidin-4-yl 4-iodo-benzoate]",,15
"Cc1ccccc1C(=O)OC1CCN(Cc2ccccc2)CC1 [E/24a, 1-Benzyl-piperidin-4-yl 2-methyl-benzoate]",,6
"Cc1ccc(C(=O)OC2CCN(Cc3ccccc3)CC2)cc1 [F/25a, 1-Benzyl-piperidin-4-yl 4-methyl-benzoate]",,8
"CNc1ccc(C(=O)OC2CCN(Cc3ccccc3)CC2)cc1 [G/32b, 1-Benzyl-piperidin-4-yl 4-methylamino-benzoate]",,5
"O=C(OC1CCN(Cc2ccc(Cl)cc2)CC1)c1ccccc1 [H/58c, 1-(4-Chloro-benzyl)-piperidin-4-yl benzoate]",,7.3
"Cc1ccc(C(=O)OC2CCN(Cc3ccc(Cl)cc3)CC2)cc1 [I/59a, 1-(4-Chloro-benzyl)-piperidin-4-yl 4-methyl-benzoate]",,15
"O=C(OC1CCN(Cc2ccc(Cl)cc2)CC1)c1ccc(Cl)cc1 [J/82a, 1-(4-Chloro-benzyl)-piperidin-4-yl 4-chloro-benzoate]",,18
"Cc1ccc(CN2CCC(OC(=O)c3ccc(C)cc3)CC2)cc1 [L/79a, 1-(4-Methyl-benzyl)-piperidin-4-yl 4-methyl-benzoate]",,5.2
"O=C(OC1CCN(Cc2cccc([N+](=O)[O-])c2)CC1)c1ccccc1 [M/70b, 1-(3-Nitro-benzyl)-piperidin-4-yl benzoate]",,13
"Cc1ccc(C(=O)OC2CCN(Cc3ccccc3)CC2)c(C)c1 [N/46a, 1-benzyl-piperidin-4-yl 2,4-dimethyl-benzoate]",,9
"O=C(OC1CCN(Cc2ccc(F)cc2)CC1)c1ccccc1 [O/64b, 1-(4-Fluoro-benzyl)-piperidin-4-yl benzoate]",,18
"Cc1ccc(C(=O)OC2CCN(Cc3cccc([N+](=O)[O-])c3)CC2)cc1 [P/71a, 1-(3-Nitro-benzyl)-piperidin-4-yl 4-methyl-benzoate]",,19
"Cc1ccc(C(=O)OC2CCN(Cc3cccc(N)c3)CC2)cc1 [Q/73a, 1-(3-Amino-benzyl)-piperidin-4-yl 4-methyl-benzoate]",,19
"Cc1ccc(C(=O)OC2CCN(Cc3ccccc3N)CC2)cc1 [R/69a, 1-(2-Amino-benzyl)-piperidin-4-yl 4-methyl-benzoate]",,17.5
"COc1ccc(CN2CCC(OC(=O)c3ccccc3)CC2)cc1 [S/80c, 1-(4-Methoxy-benzyl)-piperidin-4-yl benzoate]",,15
"Cc1ccc(CN2CCC(OC(=O)c3ccccc3)CC2)cc1 [k/78b, 1-(4-Methyl-benzyl)-piperidin-4-yl benzoate]",,3.8
